Patent EP4714938A1, “HDAC1/2 SELECTIVE INHIBITOR AND USE THEREOF” (Wigen Biomedicine Technology (Shanghai) Co., Ltd., priority 2023, dated 2024)
Read-outs that look alike come from different tables or passages of the source.

Experiments:
Assay in all cases: HDAC enzyme inhibitory activity, FRET method
Assay type in all cases: biochemical
[1] = target: HDAC1 (Homo sapiens, UniProt Q13547); details: read-out: IC50 HDAC1
Protocol: (§1) The compounds of the present disclosure were assayed for enzyme inhibitory activity against various subtypes of HDAC enzymes by the FRET method. The various subtypes of HDAC enzymes were obtained either through purification or direct purchase of assay kits.
(§2) The specific method was as follows: The enzyme was added to a 384-well plate, and a reaction buffer was added to the control well. Serially diluted DMSO sample solutions were added to the reaction wells, and the plate was incubated at room temperature for 15 min. Then a chromogenic agent was added to stop the reaction, and fluorescence was generated. The fluorescence intensity was measured using an EnVision multi-label microplate reader (excitation: 355 nm, emission: 460 nm). The endpoint value was read after the color development reached stability. The inhibition IC50 of the compounds was calculated using GraphPad Prism4 software relative to DMSO.

[2] = target: HDAC2 (Homo sapiens, UniProt Q92769); details: read-out: IC50 HDAC2
Protocol: as §1, §2

[3] = target: HDAC3 (Homo sapiens, UniProt O15379); details: read-out: IC50 HDAC3
Sequence of HDAC3 (O15379 whole entry, species assumed): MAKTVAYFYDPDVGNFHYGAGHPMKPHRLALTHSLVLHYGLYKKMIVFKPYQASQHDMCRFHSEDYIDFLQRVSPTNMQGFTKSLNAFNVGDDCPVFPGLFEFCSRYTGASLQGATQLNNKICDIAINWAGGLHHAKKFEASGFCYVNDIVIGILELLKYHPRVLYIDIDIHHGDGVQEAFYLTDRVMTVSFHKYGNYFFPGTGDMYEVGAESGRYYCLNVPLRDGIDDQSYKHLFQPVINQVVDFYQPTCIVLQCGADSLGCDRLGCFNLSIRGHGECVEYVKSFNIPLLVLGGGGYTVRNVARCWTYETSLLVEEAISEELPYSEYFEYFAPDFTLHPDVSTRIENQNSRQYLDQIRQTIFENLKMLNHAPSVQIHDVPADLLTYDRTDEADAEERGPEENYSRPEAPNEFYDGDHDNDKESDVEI
Sequence of HDAC3 (Q9Y618 395-489 partner limits assumed, species assumed): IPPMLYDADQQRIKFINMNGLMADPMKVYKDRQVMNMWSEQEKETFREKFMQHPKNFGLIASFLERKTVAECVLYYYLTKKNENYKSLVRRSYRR

Sequence of HDAC1 (Q13547 whole entry, species assumed): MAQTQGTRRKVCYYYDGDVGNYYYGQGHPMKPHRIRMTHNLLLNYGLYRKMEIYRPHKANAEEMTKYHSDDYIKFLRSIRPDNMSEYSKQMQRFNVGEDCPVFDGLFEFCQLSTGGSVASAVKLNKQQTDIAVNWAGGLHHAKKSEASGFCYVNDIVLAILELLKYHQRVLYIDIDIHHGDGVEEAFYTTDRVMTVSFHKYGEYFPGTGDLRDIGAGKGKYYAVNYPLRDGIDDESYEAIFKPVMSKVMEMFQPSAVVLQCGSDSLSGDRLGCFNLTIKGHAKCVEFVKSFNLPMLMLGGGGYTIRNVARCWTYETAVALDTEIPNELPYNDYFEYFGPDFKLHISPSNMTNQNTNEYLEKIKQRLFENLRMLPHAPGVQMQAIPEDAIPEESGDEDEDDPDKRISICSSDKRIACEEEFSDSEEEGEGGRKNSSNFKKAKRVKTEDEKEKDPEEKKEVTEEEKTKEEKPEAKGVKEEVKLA
Sequence of HDAC2 (Q92769 whole entry, species assumed): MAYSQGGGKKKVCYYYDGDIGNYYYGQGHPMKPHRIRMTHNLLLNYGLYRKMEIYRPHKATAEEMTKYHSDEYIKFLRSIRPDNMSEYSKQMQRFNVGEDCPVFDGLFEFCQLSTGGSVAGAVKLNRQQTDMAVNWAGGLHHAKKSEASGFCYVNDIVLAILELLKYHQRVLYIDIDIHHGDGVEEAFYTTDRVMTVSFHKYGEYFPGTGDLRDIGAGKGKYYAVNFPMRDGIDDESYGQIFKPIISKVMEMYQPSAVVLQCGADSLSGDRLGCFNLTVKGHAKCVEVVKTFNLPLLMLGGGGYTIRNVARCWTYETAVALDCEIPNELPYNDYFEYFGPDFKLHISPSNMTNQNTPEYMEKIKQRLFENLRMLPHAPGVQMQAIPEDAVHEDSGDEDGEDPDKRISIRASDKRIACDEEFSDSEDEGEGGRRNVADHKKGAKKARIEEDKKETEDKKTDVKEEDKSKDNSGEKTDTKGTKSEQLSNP

Compound `Nc1ccc(-c2ccc(F)cc2)cc1NC(=O)c1ccc(N=S2(=O)CCCCC2)cc1` [Compound 58] has an IC50 ([1]; Table 5) of less than 30 nM, an IC50 ([2]; Table 5) of 30 to 300 nM and an IC50 ([3]; Table 5) greater than 3000 nM.

`COC(=O)c1ccc(-c2ccc(N)c(NC(=O)c3ccc(N=S(C)(C)=O)cc3)c2)cc1` [Compound 5] gave an IC50 ([1]; Table 4) of less than 500 nM, an IC50 ([2]; Table 4) of 500 to 5000 nM and an IC50 ([3]; Table 4) greater than 5000 nM.

`CS(C)(=O)=Nc1ccc(C(=O)Nc2cc(-c3ccco3)ccc2N)cc1` [Compound 20] showed an IC50 ([1]; Table 4) of less than 500 nM, an IC50 ([2]; Table 4) of less than 500 nM and an IC50 ([3]; Table 4) greater than 5000 nM.

`[2H]C([2H])([2H])N1CCS(=O)(=Nc2ccc(C(=O)Nc3cc(-c4ccc(F)cc4)ccc3N)cc2)CC1` [Compound 68] was tested, and the IC50 ([1]; Table 4) was less than 500 nM, the IC50 ([1]; Table 5) was less than 30 nM and the IC50 ([2]; Table 4) was less than 500 nM. The IC50 ([2]; Table 5) was 30 to 300 nM, the IC50 ([3]; Table 4) was greater than 5000 nM and the IC50 ([3]; Table 5) was greater than 3000 nM.

`CS(C)(=O)=Nc1ccc(C(=O)Nc2cc(-c3ccc(F)s3)ccc2O)cc1` [Compound 42] was tested, and the IC50 ([1]; Table 4) was less than 500 nM, the IC50 ([2]; Table 4) was less than 500 nM and the IC50 ([3]; Table 4) was greater than 5000 nM.

For `CS(C)(=O)=Nc1ccc(C(=O)Nc2cc(-c3ccncn3)ccc2N)cc1` [Compound 16], the IC50 ([1]; Table 4) was less than 500 nM, the IC50 ([2]; Table 4) was less than 500 nM and the IC50 ([3]; Table 4) was greater than 5000 nM.

In the case of `CS(C)(=O)=Nc1ccc(C(=O)Nc2cc(-c3ccc(F)cc3F)ccc2N)cc1` [Compound 10], the IC50 ([1]; Table 4) is reported as less than 500 nM, the IC50 ([2]; Table 4) is reported as less than 500 nM and the IC50 ([3]; Table 4) is reported as greater than 5000 nM.

With `CS(C)(=O)=NC1CCC(C(=O)Nc2cc(-c3ccc(F)s3)ccc2N)CC1` (stereo not drawn) [Compound 47] the IC50 ([1]; Table 4) was less than 500 nM, the IC50 ([2]; Table 4) was less than 500 nM and the IC50 ([3]; Table 4) was greater than 5000 nM.

With `CS(C)(=O)=NC1CCC(C(=O)Nc2cc(-c3ccc(Cl)s3)ccc2N)CC1` (stereo not drawn) [Compound 48] the IC50 ([1]; Table 4) was less than 500 nM, the IC50 ([2]; Table 4) was less than 500 nM and the IC50 ([3]; Table 4) was greater than 5000 nM.

For `Nc1ccc(-c2ccc(F)cc2)cc1NC(=O)c1ccc(N=S2(=O)CCOCC2)cc1` [Compound 60], the IC50 ([1]; Table 5) was less than 30 nM, the IC50 ([2]; Table 5) was 30 to 300 nM and the IC50 ([3]; Table 5) was greater than 3000 nM.

Work on `CS(C)(=O)=NC1CCC(C(=O)Nc2cc(-c3ccc(F)cc3)ccc2N)CC1` (stereo not drawn) [Compound 45] yielded an IC50 ([1]; Table 4) of less than 500 nM, an IC50 ([2]; Table 4) of less than 500 nM and an IC50 ([3]; Table 4) greater than 5000 nM.

Compound `CS(C)(=O)=Nc1ccc(C(=O)Nc2cc(-c3ncccn3)ccc2N)cc1` [Compound 18] has an IC50 ([1]; Table 4) of less than 500 nM, an IC50 ([2]; Table 4) of less than 500 nM and an IC50 ([3]; Table 4) greater than 5000 nM.

Work on `CS(C)(=O)=Nc1ccc(C(=O)Nc2cc(-c3ccc(C(F)(F)F)cc3)ccc2N)cc1` [Compound 7] yielded an IC50 ([1]; Table 4) of less than 500 nM, an IC50 ([2]; Table 4) of less than 500 nM and an IC50 ([3]; Table 4) greater than 5000 nM.

`Nc1ccc(-c2cccs2)cc1NC(=O)c1ccc(N=S2(=O)CCCC2)cc1` [Compound 80] was tested, and the IC50 ([1]; Table 4) was less than 500 nM, the IC50 ([2]; Table 4) was less than 500 nM and the IC50 ([3]; Table 4) was greater than 5000 nM.

`[2H]C([2H])([2H])N1CCS(=O)(=Nc2ccc(C(=O)Nc3cc(-c4cccs4)ccc3N)cc2)CC1` [Compound 90] was tested, and the IC50 ([1]; Table 4) was less than 500 nM, the IC50 ([2]; Table 4) was less than 500 nM and the IC50 ([3]; Table 4) was greater than 5000 nM.

Compound `CS(C)(=O)=Nc1ccc(C(=O)Nc2cc(-c3ccc(F)cn3)ccc2N)cc1` [Compound 19] has an IC50 ([1]; Table 4) of less than 500 nM, an IC50 ([2]; Table 4) of less than 500 nM and an IC50 ([3]; Table 4) greater than 5000 nM.

In the case of `COc1ccc(-c2ccc(N)c(NC(=O)c3ccc(N=S(C)(C)=O)cc3)c2)cc1` [Compound 9], the IC50 ([1]; Table 4) is reported as less than 500 nM, the IC50 ([2]; Table 4) is reported as less than 500 nM and the IC50 ([3]; Table 4) is reported as greater than 5000 nM.

With `CS(C)(=O)=Nc1ccc(C(=O)Nc2cc(-c3cncnc3)ccc2N)cc1` [Compound 17] the IC50 ([1]; Table 4) was less than 500 nM, the IC50 ([2]; Table 4) was less than 500 nM and the IC50 ([3]; Table 4) was greater than 5000 nM.

`CS(C)(=O)=Nc1ccc(C(=O)Nc2cc(-c3ccncc3)ccc2N)cc1` [Compound 13] was tested, and the IC50 ([1]; Table 4) was less than 500 nM, the IC50 ([2]; Table 4) was less than 500 nM and the IC50 ([3]; Table 4) was greater than 5000 nM.

For `CP(C)(=O)c1ccc(-c2ccc(N)c(NC(=O)c3ccc(N=S(C)(C)=O)cc3)c2)cc1` [Compound 6], the IC50 ([1]; Table 4) was 500 to 5000 nM, the IC50 ([2]; Table 4) was 500 to 5000 nM and the IC50 ([3]; Table 4) was greater than 5000 nM.

`Cc1nn(C)cc1CN1CCS(=O)(=Nc2ccc(C(=O)Nc3cc(-c4ccc(F)cc4)ccc3N)cc2)CC1` [Compound 73] was tested, and the IC50 ([1]; Table 4) was less than 500 nM, the IC50 ([1]; Table 5) was less than 30 nM and the IC50 ([2]; Table 4) was less than 500 nM. The IC50 ([2]; Table 5) was 30 to 300 nM, the IC50 ([3]; Table 4) was greater than 5000 nM and the IC50 ([3]; Table 5) was greater than 3000 nM.

`CN1CC2(C1)CS(=O)(=Nc1ccc(C(=O)Nc3cc(-c4ccc(F)cc4)ccc3N)cc1)C2` [Compound 56] was tested, and the IC50 ([1]; Table 5) was less than 30 nM, the IC50 ([2]; Table 5) was 30 to 300 nM and the IC50 ([3]; Table 5) was greater than 3000 nM.
